Measured values taken from US8247211B2, “Glycopeptide antibiotics” (American Cyanamid Company, priority 2001, dated 2012).
In brackets after ≈: the same amount, converted by molar mass.

Tests used:
Test in all cases: In vitro antibacterial evaluation: minimum inhibitory concentration (MIC), broth dilution method
Type in all cases: cell-based
Enterococcus sp. = settings: 18 hours at 35° C.
Method in brief: (§1)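 An MIC is reported for each organism as the least concentration giving inhibition, using broth dilution over 64-0.06 μg/mL with a 5×10^5 CFU/mL inoculum.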

Escherichia coli = settings: 18 hours at 35° C.
Method in brief: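 Values are minimum inhibitory concentrations, meaning the smallest antibiotic concentration that stops growth of the organism. They come from broth dilution in Muller-Hinton II […] per NCCLS guidance (M7-A2), using 5×10^5 CFU/mL and concentrations from 64 to 0.06 μg/mL.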

Streptococcus sp. = settings: 18 hours at 35° C.
Method in brief: as §1

Staphylococcus sp. = tested on: Staphylococcus sp.
Method in brief: as §1

[1] = broth dilution, inoculum 5×10^5 CFU/mL

CC(C)=CCCC(C)=CCCC(C)=CCOc1cccc(C2OCC3OC(OC4C(CO)OC(Oc5ccc(CC6NC(=O)C(C(C)c7ccccc7)NC(=O)CNC(=O)C(CO)NC(=O)C(C(O)C7CNC(=N)N7C7OC(CO)C(O)C(O)C7O)NC(=O)C(C(O)C7CNC(=N)N7)NC6=O)cc5)C(O)C4O)C(O)C(O)C3O2)c1 (stereo not shown) [Example 185]
MIC Enterococcus avium (GC 4558) (Enterococcus sp.; Enterococcus avium (GC 4558)): 64 µg/mL (≈ 39.9 µM) | MIC Enterococcus faecalis (ATCC 29212) (Enterococcus sp.; Enterococcus faecalis (ATCC 29212)): >64 µg/mL | MIC Enterococcus faecalis (GC 2242) (Enterococcus sp.; Enterococcus faecalis (GC 2242)): >64 µg/mL | MIC Enterococcus faecalis (GC 2691) (Enterococcus sp.; Enterococcus faecalis (GC 2691)): >64 µg/mL | MIC Enterococcus faecalis (GC 3059) (Enterococcus sp.; Enterococcus faecalis (GC 3059)): >64 µg/mL | MIC Enterococcus faecalis (GC 4552) (Enterococcus sp.; Enterococcus faecalis (GC 4552)): >64 µg/mL | MIC Enterococcus faecalis (GC 4553) (Enterococcus sp.; Enterococcus faecalis (GC 4553)): 32 µg/mL (≈ 20 µM) | MIC Enterococcus faecalis (GC 4554) (Enterococcus sp.; Enterococcus faecalis (GC 4554)): >64 µg/mL | MIC Enterococcus faecalis (GC 6189) (Enterococcus sp.; Enterococcus faecalis (GC 6189)): >64 µg/mL | MIC Enterococcus faecium (GC 2243) (Enterococcus sp.; Enterococcus faecium (GC 2243)): 32 µg/mL (≈ 20 µM) | MIC Enterococcus faecium (GC 4556) (Enterococcus sp.; Enterococcus faecium (GC 4556)): >64 µg/mL | MIC Enterococcus faecium (GC 4557) (Enterococcus sp.; Enterococcus faecium (GC 4557)): >64 µg/mL | MIC Enterococcus avium (GC 4558) (Enterococcus sp.; [1]): 64 µg/mL (≈ 39.9 µM) | MIC Enterococcus faecalis (ATCC 29212) (Enterococcus sp.; [1]): >64 µg/mL | MIC Enterococcus faecalis (GC 2242) (Enterococcus sp.; [1]): >64 µg/mL | MIC Enterococcus faecalis (GC 2691) (Enterococcus sp.; [1]): >64 µg/mL | MIC Enterococcus faecalis (GC 3059) (Enterococcus sp.; [1]): >64 µg/mL | MIC Enterococcus faecalis (GC 4552) (Enterococcus sp.; [1]): >64 µg/mL | MIC Enterococcus faecalis (GC 4553) (Enterococcus sp.; [1]): 32 µg/mL (≈ 20 µM) | MIC Enterococcus faecalis (GC 4554) (Enterococcus sp.; [1]): >64 µg/mL | MIC Enterococcus faecalis (GC 6189) (Enterococcus sp.; [1]): >64 µg/mL | MIC Enterococcus faecium (GC 2243) (Enterococcus sp.; [1]): 32 µg/mL (≈ 20 µM) | MIC Enterococcus faecium (GC 4556) (Enterococcus sp.; [1]): >64 µg/mL | MIC Enterococcus faecium (GC 4557) (Enterococcus sp.; [1]): >64 µg/mL | MIC Escherichia coli (ATCC 25922) (Escherichia coli; Escherichia coli (ATCC 25922)): >64 µg/mL | MIC Escherichia coli (GC 4559) (Escherichia coli; Escherichia coli (GC 4559)): >64 µg/mL | MIC Escherichia coli (GC 4560) (Escherichia coli; Escherichia coli (GC 4560)): >64 µg/mL | MIC Streptococcus agalactiae (GC 4564) (Streptococcus sp.; Streptococcus agalactiae (GC 4564)): 1 µg/mL (≈ 0.624 µM) | MIC Streptococcus pneumoniae (ATCC 6301) (Streptococcus sp.; Streptococcus pneumoniae (ATCC 6301)): 0.12 µg/mL (≈ 0.0748 µM) | MIC Streptococcus pneumoniae (GC 1894) (Streptococcus sp.; Streptococcus pneumoniae (GC 1894)): <0.06 µg/mL | MIC Streptococcus pneumoniae (GC 4565) (Streptococcus sp.; Streptococcus pneumoniae (GC 4565)): <0.06 µg/mL | MIC Streptococcus pyogenes (GC 4563) (Streptococcus sp.; Streptococcus pyogenes (GC 4563)): 16 µg/mL (≈ 9.98 µM) | MIC Streptococcus agalactiae (GC 4564) (Streptococcus sp.; [1]): 1 µg/mL (≈ 0.624 µM) | MIC Streptococcus pneumoniae (ATCC 6301) (Streptococcus sp.; [1]): 0.12 µg/mL (≈ 0.0748 µM) | MIC Streptococcus pneumoniae (GC 1894) (Streptococcus sp.; [1]): <0.06 µg/mL | MIC Streptococcus pneumoniae (GC 4565) (Streptococcus sp.; [1]): <0.06 µg/mL | MIC Streptococcus pyogenes (GC 4563) (Streptococcus sp.; [1]): 16 µg/mL (≈ 9.98 µM) | MIC Staphylococcus aureus (ATCC 29213) (Staphylococcus sp.; strain ATCC 29213): >64 µg/mL | MIC Staphylococcus aureus (GC 1131) (Staphylococcus sp.; strain GC 1131): >64 µg/mL | MIC Staphylococcus aureus (GC 3051) (Staphylococcus sp.; strain GC 3051): >64 µg/mL | MIC Staphylococcus aureus (GC 3053) (Staphylococcus sp.; strain GC 3053): >64 µg/mL | MIC Staphylococcus aureus (GC 4541) (Staphylococcus sp.; strain GC 4541): >64 µg/mL | MIC Staphylococcus aureus (GC 4542) (Staphylococcus sp.; strain GC 4542): >64 µg/mL | MIC Staphylococcus aureus-SMITH (GC 4543) (Staphylococcus sp.; strain GC 4543): >64 µg/mL | MIC Staphylococcus aureus (GC 4544) (Staphylococcus sp.; strain GC 4544): >64 µg/mL | MIC Staphylococcus aureus (GC 4545) (Staphylococcus sp.; strain GC 4545): >64 µg/mL | MIC Staphylococcus haemolyticus (GC 4546) (Staphylococcus sp.; strain GC 4546): >64 µg/mL | MIC Coagulase Negative Staphylococcus (GC 4547) (Staphylococcus sp.; strain GC 4547): >64 µg/mL | MIC Coagulase Negative Staphylococcus (GC 4548) (Staphylococcus sp.; strain GC 4548): >64 µg/mL | MIC Coagulase Negative Staphylococcus (GC 4549) (Staphylococcus sp.; strain GC 4549): >64 µg/mL | MIC Coagulase Negative Staphylococcus (GC 4551) (Staphylococcus sp.; strain GC 4551): >64 µg/mL | MIC Coagulase Negative Staphylococcus (GC 6257) (Staphylococcus sp.; strain GC 6257): >64 µg/mL
